Experiments:
Homo sapiens [1] = test: Toxicity in healthy human assessed as pollakiuria at 300 […], po administered as single dose; type: organism-based; design: route oral; conditions: in vivo
Homo sapiens [2] = test: Toxicity in healthy human assessed as EEG abnormality at 250 mg/kg, po administered as single dose; type: organism-based; design: dose 250 mg/kg, route oral; conditions: in vivo
[3] = AUC (0 to 24 hrs) in healthy human at 30 mg/kg, po after 10 days; type: ADME, organism-based; design: time < 24 hr, dose 30 mg/kg, route oral; conditions: plasma
[4] = AUC (0 to 24 hrs) in healthy human at 200 mg/kg, po once daily for 7 days; type: ADME, organism-based; design: time < 24 hr, dose 200 mg/kg, route oral; conditions: plasma
Homo sapiens [5] = test: Toxicity in healthy human assessed as nausea at 250 […], po once daily for 7 days; type: organism-based; design: route oral; conditions: in vivo, 168 h
[6] = Tmax in healthy human at 250 mg/kg, po once daily for 7 days measured after 1 day of last dose; type: ADME, organism-based; design: dose 250 mg/kg, route oral; conditions: in vivo
Homo sapiens [7] = test: Toxicity in healthy human assessed as nausea at 200 […], po administered as single dose; type: organism-based; design: route oral; conditions: in vivo
[8] = AUC (0 to infinity) in healthy human at 200 mg/kg, po administered as single dose after 1 day; type: ADME, organism-based; design: time infinity, dose 200 mg/kg, route oral; conditions: plasma
Homo sapiens [9] = test: Toxicity in healthy human assessed as fatigue at 250 […], po administered as single dose; type: organism-based; design: route oral; conditions: in vivo
Homo sapiens [10] = test: Toxicity in healthy human assessed as fatigue at 300 […], po administered as single dose; type: organism-based; design: route oral; conditions: in vivo
[11] = Tmax in healthy human at 200 mg/kg, po once daily for 7 days measured after 1 day of last dose; type: ADME, organism-based; design: dose 200 mg/kg, route oral; conditions: in vivo
Homo sapiens [12] = test: Toxicity in healthy human assessed as EEG abnormality at 250 mg/kg, po once daily for 7 days; type: organism-based; design: dose 250 mg/kg, route oral; conditions: in vivo, 168 h
[13] = Cmax in healthy human at 200 mg/kg, po once daily for 7 days measured after 1 day of last dose; type: ADME, organism-based; design: dose 200 mg/kg, route oral; conditions: in vivo
[14] = AUC (0 to 24 hrs) in healthy human at 150 […], po once daily for 7 days measured after 1 day of last dose; type: ADME, organism-based; design: time < 24 hr, dose 150 mg/kg, route oral; conditions: plasma
Homo sapiens [15] = test: Toxicity in healthy human assessed as EEG abnormality at 300 mg/kg, po administered as single dose; type: organism-based; design: dose 300 mg/kg, route oral; conditions: in vivo
Homo sapiens [16] = test: Toxicity in healthy human assessed as puncture site pain at 300 […], po administered as single dose; type: organism-based; design: route oral; conditions: in vivo
[17] = Cmax in healthy human at 150 […], po once daily for 7 days; type: ADME, organism-based; design: dose 150 mg/kg, route oral; conditions: in vivo
Homo sapiens [18] = test: Toxicity in healthy human assessed as pollakiuria at 250 […], po once daily for 7 days; type: organism-based; design: route oral; conditions: in vivo, 168 h
[19] = Tmax in healthy human at 200 mg/kg, po administered as single dose after 1 day; type: ADME, organism-based; design: dose 200 mg/kg, route oral; conditions: in vivo
[20] = Cmax in healthy human at 250 mg/kg, po once daily for 7 days measured after 1 day of last dose; type: ADME, organism-based; design: dose 250 mg/kg, route oral; conditions: in vivo
[21] = AUC (0 to infinity) in healthy human at 300 mg/kg, po administered as single dose after 1 day; type: ADME, organism-based; design: time infinity, dose 300 mg/kg, route oral; conditions: plasma
[22] = AUC (0 to 24 hrs) in healthy human at 150 […], po once daily for 7 days; type: ADME, organism-based; design: time < 24 hr, dose 150 mg/kg, route oral; conditions: plasma
Homo sapiens [23] = test: Toxicity in healthy human assessed as EEG abnormality at 150 […], po once daily for 7 days; type: organism-based; design: dose 150 mg/kg, route oral; conditions: in vivo, 168 h
[24] = Cmax in healthy human at 200 mg/kg, po once daily for 7 days; type: ADME, organism-based; design: dose 200 mg/kg, route oral; conditions: in vivo
Homo sapiens [25] = test: Toxicity in healthy human assessed as EEG abnormality at 200 mg/kg, po once daily for 7 days; type: organism-based; design: dose 200 mg/kg, route oral; conditions: in vivo, 168 h
Homo sapiens [26] = test: Toxicity in healthy human assessed as pollakiuria at 200 […], po once daily for 7 days; type: organism-based; design: route oral; conditions: in vivo, 168 h
[27] = Tmax in healthy human at 300 mg/kg, po administered as single dose after 1 day; type: ADME, organism-based; design: dose 300 mg/kg, route oral; conditions: in vivo
[28] = Tmax in healthy human at 200 mg/kg, po once daily for 7 days; type: ADME, organism-based; design: dose 200 mg/kg, route oral; conditions: in vivo
Homo sapiens [29] = test: Toxicity in healthy human assessed as headache at 300 […], po administered as single dose; type: organism-based; design: route oral; conditions: in vivo
Homo sapiens [30] = test: Toxicity in healthy human assessed as fatigue at 250 […], po once daily for 7 days; type: organism-based; design: route oral; conditions: in vivo, 168 h
Homo sapiens [31] = test: Toxicity in healthy human assessed as nausea at 300 […], po administered as single dose; type: organism-based; design: route oral; conditions: in vivo
Homo sapiens [32] = test: Toxicity in healthy human assessed as headache at 250 […], po once daily for 7 days; type: organism-based; design: route oral; conditions: in vivo, 168 h
[33] = AUC (0 to 24 hrs) in healthy human at 200 mg/kg, po once daily for 7 days measured after 1 day of last dose; type: ADME, organism-based; design: time < 24 hr, dose 200 mg/kg, route oral; conditions: plasma
Homo sapiens [34] = test: Toxicity in healthy human assessed as headache at 200 […], po once daily for 7 days; type: organism-based; design: route oral; conditions: in vivo, 168 h
Homo sapiens [35] = test: Toxicity in healthy human assessed as pollakiuria at 200 […], po administered as single dose; type: organism-based; design: route oral; conditions: in vivo
Homo sapiens [36] = test: Toxicity in healthy human assessed as puncture site pain at 250 […], po once daily for 7 days; type: organism-based; design: route oral; conditions: in vivo, 168 h

COC[C@@H](c1ccc(C(F)(F)F)cc1)N1CCN(C2(C)CCN(C(=O)c3c(C)ncnc3C)CC2)C[C@@H]1C [VICRIVIROC]
Activity (Homo sapiens [1]): 0%
Activity (Homo sapiens [2]): 0%
AUC at 24 h [3]: 6670 ng·h/mL
AUC at 24 h [4]: 8140 ng·h/mL
Activity (Homo sapiens [5]): 13%
Tmax [6]: 1.5 h
Activity (Homo sapiens [7]): 0%
AUC(0-inf) [8]: 6050 ng·h/mL
Activity (Homo sapiens [9]): 13%
Activity (Homo sapiens [10]): 0%
Tmax [11]: 1.75 h
Activity (Homo sapiens [12]): 38%
Cmax [13]: 838 ng/mL
AUC at 24 h [14]: 3260 ng·h/mL
Activity (Homo sapiens [15]): 13%
Activity (Homo sapiens [16]): 17%
Cmax [17]: 649 ng/mL
Activity (Homo sapiens [18]): 0%
Tmax [19]: 2 h
Cmax [20]: 791 ng/mL
AUC(0-inf) [21]: 10100 ng·h/mL
AUC at 24 h [22]: 6060 ng·h/mL
Activity (Homo sapiens [23]): 0%
Cmax [24]: 949 ng/mL
Activity (Homo sapiens [25]): 0%
Activity (Homo sapiens [26]): 13%
Tmax [27]: 2.9 h
Tmax [28]: 2 h
Activity (Homo sapiens [29]): 13%
Activity (Homo sapiens [30]): 0%
Activity (Homo sapiens [31]): 13%
Activity (Homo sapiens [32]): 25%
AUC at 24 h [33]: 5390 ng·h/mL
Activity (Homo sapiens [34]): 13%
Activity (Homo sapiens [35]): 0%
Activity (Homo sapiens [36]): 17%
